Laboratory results taken from ChEMBL document CHEMBL1201862, “PubChem BioAssay data set” (2004).
Each block holds one compound with its values, some of them ahead of it. Calls of active or inactive are those of the source.

Columns and labels:
INS1 = experiment: INS-1E survival protection against cytokine death – cell-based, luminescence, retest, dose response (AID 449756); assay type: functional; settings: Rattus norvegicus;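 note: cell death triggered by IL-1 beta plus TNF-alpha plus IFN-gamma mixture; protective hits raise ATP signal compared with cytokine alone wells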
[1] = fluconazole-exposed Candida albicans growth modulators – fluorescence, retest, confirmation (AID 2467); assay type: functional, cell-based
[2] = biological target: G-protein coupled receptor 35 (Homo sapiens, UniProt Q9HC97); experiment: inhibition of zaprinast-stimulated GPR35 beta-arrestin translocation – imaging, U2OS, beta-arrestin-GFP, zaprinast agonist, primary screen (AID 2058); assay type: functional;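 note: antagonist potency meaning inhibition of agonist-induced arrestin redistribution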
[3] = NIH-3T3 fibroblast cytotoxicity, dose response, cytotoxicity control, cell-based, fluorescence, Alamar Blue, secondary assay (AID 2327); assay type: functional;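 note: NIH-3T3 mouse fibroblasts cultured with fluconazole at 8 µg/mL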
[4] = biological target: T1, G-protein coupled receptor 55 (Homo sapiens, UniProt Q9Y2T6); experiment: inhibition of LPI-stimulated GPR55 beta-arrestin translocation – imaging, U2OS, beta-arrestin-GFP, LPI agonist, primary screen (AID 2013); assay type: functional;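 note: antagonist potency measured as reduced agonist-driven arrestin aggregation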
[5] = viability of HCT116 lacking mutant beta-catenin – cell-based, human colon tumor, dose response (AID 1045); assay type: functional;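 note: HCT116 colon tumor cells with beta catenin knocked out; cells exposed to compound for 60 hours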
[6] = viability of PTEN-deleted HCT116 cells – cell-based, HCT116 PTEN knockout, dose response (AID 1047); assay type: functional;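 note: HCT116 colon tumor cells with PTEN knocked out; cells exposed to compound for 60 hours before readout; potency for loss of cell viability measured by luminescence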
[7] = biological target: Scavenger receptor class B member 1 (Mus musculus, UniProt Q61009); experiment: mouse SR-BI DiI-HDL uptake blockers – ldlA[mSR-BI] cells, fluorescence, cherry pick, dose response (AID 493194); assay type: functional, cell-based;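 note: cellular uptake of fluorescent DiI-labeled HDL measured as cell fluorescence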
[8] = biological target: T2, Ubiquitin-conjugating enzyme E2 N (Homo sapiens, UniProt P61088); assay type: functional;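 note: Dose-response confirmation in a TR-FRET assay detecting UBC13-driven polyubiquitin chain formation, inhibition measured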
T2 sequence (P61088 whole entry): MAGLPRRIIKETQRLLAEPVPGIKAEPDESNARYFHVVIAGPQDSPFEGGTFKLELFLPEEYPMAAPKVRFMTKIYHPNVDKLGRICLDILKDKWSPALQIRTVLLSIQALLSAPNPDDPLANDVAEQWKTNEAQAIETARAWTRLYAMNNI

[9] = biological target: Acyl-homoserine lactone acylase PvdQ (Pseudomonas aeruginosa (strain LESB58), UniProt Q9I194); experiment: PvdQ acylase enzyme activity blockers – biochemical, fluorescence, plate reader and imaging, cherry-picks, dose response (AID 493231)
Protein skinhead-1 = biological target: T3, Protein skinhead-1 (Caenorhabditis elegans, UniProt P34707); assay type: functional
T3 sequence (P34707 whole entry): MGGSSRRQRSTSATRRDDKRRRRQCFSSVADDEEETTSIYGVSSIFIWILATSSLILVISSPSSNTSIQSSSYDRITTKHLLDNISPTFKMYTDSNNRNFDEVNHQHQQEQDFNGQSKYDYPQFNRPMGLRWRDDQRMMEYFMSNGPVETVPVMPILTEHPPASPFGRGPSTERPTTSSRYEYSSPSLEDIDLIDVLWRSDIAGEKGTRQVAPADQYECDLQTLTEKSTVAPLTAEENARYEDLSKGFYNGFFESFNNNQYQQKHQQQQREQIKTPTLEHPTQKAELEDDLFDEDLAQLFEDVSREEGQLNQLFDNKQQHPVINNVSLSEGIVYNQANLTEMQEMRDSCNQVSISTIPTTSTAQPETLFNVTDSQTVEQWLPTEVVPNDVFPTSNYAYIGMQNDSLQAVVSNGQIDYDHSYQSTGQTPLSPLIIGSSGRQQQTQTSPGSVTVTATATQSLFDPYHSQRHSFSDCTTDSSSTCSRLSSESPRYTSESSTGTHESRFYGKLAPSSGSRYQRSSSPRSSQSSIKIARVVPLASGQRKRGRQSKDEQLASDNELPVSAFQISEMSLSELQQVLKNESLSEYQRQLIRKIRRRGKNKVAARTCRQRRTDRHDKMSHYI

[10] = biological target: Potassium voltage-gated channel subfamily KQT member 2 (Rattus norvegicus, UniProt O88943); experiment: potentiation of rat KCNQ2 current – cell-based, retigabine-insensitive compounds, dose response (AID 2654); assay type: functional
[11] = biological target: T4, Voltage-gated N-type calcium channel alpha-1B subunit/Amyloid beta A4 precursor protein-binding family A member 1 (Homo sapiens, UniProt Q00975+Q02410); assay type: protein assay
[12] = biological target: Glucose-6-phosphate 1-dehydrogenase (Homo sapiens, UniProt P11413); experiment: inhibition of Homo sapiens G6PD, dose series – biochemical, fluorescence, selectivity assay for P. falciparum G6PD inhibitor project, dose response (AID 504792); assay type: functional
[13] = biological target: T4, Voltage-gated N-type calcium channel alpha-1B subunit/Amyloid beta A4 precursor protein-binding family A member 1; experiment: disruptors of Mint-PDZ/N-type channel peptide interaction – biochemical, HTRF, SAR follow-up (AID 2489); assay type: functional
[14] = biological target: T4, Voltage-gated N-type calcium channel alpha-1B subunit/Amyloid beta A4 precursor protein-binding family A member 1; assay type: protein assay; remark: listed apart in the source
[15] = biological target: T4, Voltage-gated N-type calcium channel alpha-1B subunit/Amyloid beta A4 precursor protein-binding family A member 1; experiment: disruptors of Mint-PDZ/N-type channel peptide interaction – biochemical, HTRF, set 2, SAR follow-up (AID 434980); assay type: functional
[16] = biological target: T1, G-protein coupled receptor 55; experiment: selective activators of receptor GPR55 – imaging, U2OS cells, beta-arrestin-GFP redistribution, primary screen (AID 1961); assay type: functional

T4 sequence (Q00975 whole entry): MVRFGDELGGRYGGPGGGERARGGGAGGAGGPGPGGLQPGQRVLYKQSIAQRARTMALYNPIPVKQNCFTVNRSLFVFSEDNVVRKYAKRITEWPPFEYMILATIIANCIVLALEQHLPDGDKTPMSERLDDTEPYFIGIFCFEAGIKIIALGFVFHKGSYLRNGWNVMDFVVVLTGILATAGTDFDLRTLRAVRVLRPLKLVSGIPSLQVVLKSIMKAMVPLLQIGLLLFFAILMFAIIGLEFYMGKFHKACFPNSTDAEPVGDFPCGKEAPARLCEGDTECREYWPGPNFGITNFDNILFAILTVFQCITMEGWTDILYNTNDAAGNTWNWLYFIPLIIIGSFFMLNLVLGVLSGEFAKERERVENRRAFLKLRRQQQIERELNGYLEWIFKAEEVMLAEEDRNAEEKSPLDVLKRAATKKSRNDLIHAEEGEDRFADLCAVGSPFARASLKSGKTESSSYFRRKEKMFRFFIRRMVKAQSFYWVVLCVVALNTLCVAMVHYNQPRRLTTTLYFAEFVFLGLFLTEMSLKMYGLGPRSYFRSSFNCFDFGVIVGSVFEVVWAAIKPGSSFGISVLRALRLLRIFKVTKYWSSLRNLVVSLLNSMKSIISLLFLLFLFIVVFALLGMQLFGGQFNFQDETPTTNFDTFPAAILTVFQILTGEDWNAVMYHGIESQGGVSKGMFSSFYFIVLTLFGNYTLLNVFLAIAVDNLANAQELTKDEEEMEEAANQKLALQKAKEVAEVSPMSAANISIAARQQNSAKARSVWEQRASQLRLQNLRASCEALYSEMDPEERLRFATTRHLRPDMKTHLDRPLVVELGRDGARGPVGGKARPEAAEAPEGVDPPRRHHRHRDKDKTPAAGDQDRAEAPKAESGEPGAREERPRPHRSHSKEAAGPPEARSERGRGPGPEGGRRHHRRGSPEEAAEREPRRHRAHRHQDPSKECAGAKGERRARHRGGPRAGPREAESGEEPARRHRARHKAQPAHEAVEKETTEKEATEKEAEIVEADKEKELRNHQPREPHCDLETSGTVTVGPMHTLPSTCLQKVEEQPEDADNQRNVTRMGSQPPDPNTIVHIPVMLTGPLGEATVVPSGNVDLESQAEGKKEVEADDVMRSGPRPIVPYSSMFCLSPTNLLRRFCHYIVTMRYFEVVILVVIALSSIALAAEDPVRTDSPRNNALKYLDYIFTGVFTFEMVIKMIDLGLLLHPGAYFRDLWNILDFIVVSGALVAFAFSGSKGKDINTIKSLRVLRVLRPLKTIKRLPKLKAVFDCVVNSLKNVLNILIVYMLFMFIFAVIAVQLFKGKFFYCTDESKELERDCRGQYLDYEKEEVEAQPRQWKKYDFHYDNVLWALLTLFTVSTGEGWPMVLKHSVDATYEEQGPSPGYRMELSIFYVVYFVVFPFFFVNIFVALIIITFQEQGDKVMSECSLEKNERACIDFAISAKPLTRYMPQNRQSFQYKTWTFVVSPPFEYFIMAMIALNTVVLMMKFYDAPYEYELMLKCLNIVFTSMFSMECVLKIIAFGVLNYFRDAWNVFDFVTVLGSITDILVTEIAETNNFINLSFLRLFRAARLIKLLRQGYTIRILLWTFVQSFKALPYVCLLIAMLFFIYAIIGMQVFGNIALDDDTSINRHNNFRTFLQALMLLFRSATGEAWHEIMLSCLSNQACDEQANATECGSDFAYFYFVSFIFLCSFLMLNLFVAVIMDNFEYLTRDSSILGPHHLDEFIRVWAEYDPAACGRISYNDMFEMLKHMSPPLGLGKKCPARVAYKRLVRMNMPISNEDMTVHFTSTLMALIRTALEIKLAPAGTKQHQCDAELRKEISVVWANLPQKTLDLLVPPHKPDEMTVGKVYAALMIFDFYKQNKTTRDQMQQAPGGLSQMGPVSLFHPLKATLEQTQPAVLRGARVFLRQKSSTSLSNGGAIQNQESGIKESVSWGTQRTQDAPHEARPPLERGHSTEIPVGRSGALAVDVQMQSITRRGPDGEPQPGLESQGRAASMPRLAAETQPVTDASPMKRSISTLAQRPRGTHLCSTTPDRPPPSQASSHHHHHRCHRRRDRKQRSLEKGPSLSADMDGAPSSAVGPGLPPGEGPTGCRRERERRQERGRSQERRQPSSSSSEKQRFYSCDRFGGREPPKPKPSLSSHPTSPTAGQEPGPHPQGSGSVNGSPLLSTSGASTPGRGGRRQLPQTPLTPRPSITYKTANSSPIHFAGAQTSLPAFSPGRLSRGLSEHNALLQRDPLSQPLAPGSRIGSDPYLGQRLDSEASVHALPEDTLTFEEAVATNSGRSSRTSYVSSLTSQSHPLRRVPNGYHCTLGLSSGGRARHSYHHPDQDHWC
T4 sequence (Q02410 whole entry): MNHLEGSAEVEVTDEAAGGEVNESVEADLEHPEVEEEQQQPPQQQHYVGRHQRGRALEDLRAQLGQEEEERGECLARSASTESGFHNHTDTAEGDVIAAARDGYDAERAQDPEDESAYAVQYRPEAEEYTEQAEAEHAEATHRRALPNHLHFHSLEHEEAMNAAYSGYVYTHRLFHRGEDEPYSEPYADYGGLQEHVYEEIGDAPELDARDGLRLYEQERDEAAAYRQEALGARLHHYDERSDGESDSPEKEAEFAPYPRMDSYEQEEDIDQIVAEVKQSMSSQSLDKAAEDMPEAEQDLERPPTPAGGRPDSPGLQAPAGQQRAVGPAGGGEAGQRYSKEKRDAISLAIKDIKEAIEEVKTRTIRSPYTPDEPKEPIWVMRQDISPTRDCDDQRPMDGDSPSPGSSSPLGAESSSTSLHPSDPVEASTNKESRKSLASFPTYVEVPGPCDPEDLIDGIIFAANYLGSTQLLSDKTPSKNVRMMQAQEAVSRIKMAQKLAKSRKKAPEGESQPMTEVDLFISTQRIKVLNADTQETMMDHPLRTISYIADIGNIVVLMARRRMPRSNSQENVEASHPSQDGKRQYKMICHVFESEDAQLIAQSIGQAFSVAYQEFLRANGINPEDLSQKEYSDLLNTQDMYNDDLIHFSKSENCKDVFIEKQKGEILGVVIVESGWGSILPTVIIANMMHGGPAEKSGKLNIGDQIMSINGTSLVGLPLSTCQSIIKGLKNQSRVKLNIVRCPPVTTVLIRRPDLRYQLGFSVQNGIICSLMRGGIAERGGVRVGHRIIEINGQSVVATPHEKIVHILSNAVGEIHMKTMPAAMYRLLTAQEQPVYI
T1 sequence (Q9Y2T6 whole entry): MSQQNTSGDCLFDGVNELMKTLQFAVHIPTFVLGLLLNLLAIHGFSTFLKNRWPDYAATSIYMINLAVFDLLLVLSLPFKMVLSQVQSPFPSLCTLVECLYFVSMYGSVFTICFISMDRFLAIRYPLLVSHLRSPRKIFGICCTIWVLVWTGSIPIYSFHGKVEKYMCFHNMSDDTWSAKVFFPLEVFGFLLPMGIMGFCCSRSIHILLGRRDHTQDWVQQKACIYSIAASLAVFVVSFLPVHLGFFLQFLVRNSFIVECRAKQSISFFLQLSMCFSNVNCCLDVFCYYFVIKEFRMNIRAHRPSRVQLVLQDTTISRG
Chain of Acyl-homoserine lactone acylase PvdQ (Q9I194 24-193 limits assumed): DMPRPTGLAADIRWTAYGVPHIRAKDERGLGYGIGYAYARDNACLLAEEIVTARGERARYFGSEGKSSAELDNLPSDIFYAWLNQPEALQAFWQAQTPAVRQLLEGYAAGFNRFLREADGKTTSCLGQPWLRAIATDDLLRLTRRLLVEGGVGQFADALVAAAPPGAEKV
Chain of Acyl-homoserine lactone acylase PvdQ (Q9I194 217-762 limits assumed): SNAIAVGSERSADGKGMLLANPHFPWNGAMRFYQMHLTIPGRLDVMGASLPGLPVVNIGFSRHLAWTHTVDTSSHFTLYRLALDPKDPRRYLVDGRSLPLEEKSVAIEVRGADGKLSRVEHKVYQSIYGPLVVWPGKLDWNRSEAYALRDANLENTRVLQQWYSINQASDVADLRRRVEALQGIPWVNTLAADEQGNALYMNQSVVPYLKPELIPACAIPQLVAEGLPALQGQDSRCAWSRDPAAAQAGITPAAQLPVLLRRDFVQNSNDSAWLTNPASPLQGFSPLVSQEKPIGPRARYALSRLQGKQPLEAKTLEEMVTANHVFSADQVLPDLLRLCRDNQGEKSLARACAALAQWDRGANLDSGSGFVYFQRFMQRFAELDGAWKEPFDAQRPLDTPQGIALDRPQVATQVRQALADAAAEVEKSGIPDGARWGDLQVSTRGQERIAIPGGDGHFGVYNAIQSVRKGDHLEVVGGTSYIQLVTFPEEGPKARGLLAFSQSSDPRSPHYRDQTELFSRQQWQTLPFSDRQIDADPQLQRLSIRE
Chain of Scavenger receptor class B member 1 (Q61009 whole entry): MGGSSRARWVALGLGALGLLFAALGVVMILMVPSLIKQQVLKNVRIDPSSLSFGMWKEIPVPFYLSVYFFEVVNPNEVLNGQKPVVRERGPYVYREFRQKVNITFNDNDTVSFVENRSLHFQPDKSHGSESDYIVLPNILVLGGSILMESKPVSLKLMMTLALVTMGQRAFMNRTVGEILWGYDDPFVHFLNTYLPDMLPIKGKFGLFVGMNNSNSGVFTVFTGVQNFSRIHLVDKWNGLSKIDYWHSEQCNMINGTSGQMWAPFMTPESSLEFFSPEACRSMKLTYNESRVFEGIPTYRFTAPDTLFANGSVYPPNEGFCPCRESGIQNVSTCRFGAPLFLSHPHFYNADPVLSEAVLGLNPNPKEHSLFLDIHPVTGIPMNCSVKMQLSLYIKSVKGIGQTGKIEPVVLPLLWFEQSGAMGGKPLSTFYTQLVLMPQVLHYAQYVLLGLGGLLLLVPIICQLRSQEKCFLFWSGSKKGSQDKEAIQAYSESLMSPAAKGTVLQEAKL
Chain of G-protein coupled receptor 35 (Q9HC97 whole entry): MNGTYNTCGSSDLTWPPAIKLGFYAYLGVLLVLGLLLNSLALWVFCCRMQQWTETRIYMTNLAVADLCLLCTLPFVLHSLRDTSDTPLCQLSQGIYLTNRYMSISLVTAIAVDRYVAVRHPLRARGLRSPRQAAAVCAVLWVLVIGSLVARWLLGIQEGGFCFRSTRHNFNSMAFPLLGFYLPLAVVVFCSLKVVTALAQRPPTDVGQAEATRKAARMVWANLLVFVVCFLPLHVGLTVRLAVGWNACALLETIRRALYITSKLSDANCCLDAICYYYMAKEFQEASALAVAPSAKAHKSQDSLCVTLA

SMILES: COc1ccc(C)cc1Nc1n[n+](-c2ccccc2)c(-c2ccc(N(C)C)cc2)s1
- AC50 (INS1): 2.53 µM (active)
- EC50 [1]: 2.27 µM (active)
- IC50 [2]: 3.54 µM (active)
- EC50 [3]: > 150 µM (inactive)
- IC50 [4]: 3.42 µM (active)

SMILES: COc1cc(C2CC(=O)c3c([nH]c(C(=O)OCCOC(C)C)c3C)C2)cc(OC)c1OC (stereo not drawn)
- EC50 [5]: 31 µM (active)
- EC50 [6]: 38.4 µM (active)
- AC50 [7]: 18 µM (active)

SMILES: Cc1cccn2c(=O)c(C=O)c(N3CCCCCC3)nc12
- IC50 [8]: > 20 µM (inactive)
- AC50 [9]: 24.8 µM (active)
- IC50 (Protein skinhead-1): > 100 µM (inactive)

- EC50 [10]: 13.4 µM (active)
SMILES: Cc1ccc(NC(=O)Nc2cccnc2)cc1C

SMILES: Cc1ccc(/C=C/C(=O)NCc2ccc(S(N)(=O)=O)cc2)o1
- IC50 [11]: 8.37 µM (active)
- IC50 [12]: > 80 µM (inactive)
- IC50 [13]: 3.34 µM (active)
- IC50 [14]: 3.12 µM (active)
- IC50 [15]: 4.23 µM (active)

- EC50 [16]: 13.7 µM (inactive)
SMILES: O=C(c1ccco1)N1CCN(c2ncnc3c2nnn3Cc2ccccc2Cl)CC1
